One assay has as its target T1, ICE (Homo sapiens, UniProt P29466).
T1 sequence (P29466 120-297 limits assumed): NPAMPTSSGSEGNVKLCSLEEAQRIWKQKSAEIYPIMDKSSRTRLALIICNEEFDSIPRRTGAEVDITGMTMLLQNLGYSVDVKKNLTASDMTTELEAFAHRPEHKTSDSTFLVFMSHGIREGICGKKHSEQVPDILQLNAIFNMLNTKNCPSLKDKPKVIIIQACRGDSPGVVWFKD
T1 sequence (P29466 317-404 limits assumed): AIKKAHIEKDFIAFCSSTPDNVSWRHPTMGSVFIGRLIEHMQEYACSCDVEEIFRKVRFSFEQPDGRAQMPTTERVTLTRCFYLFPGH
Put plainly: Enzyme assay with UV-visible substrate (visible ICE assay, Succinyl-Tyr-Val-Ala-Asp-pNitroanilide). Format: biochemical. The protocol:
1. Enzyme Assay with Uv-Visible Substrate
This assay is run using an Succinyl-Tyr-Val-Ala-Asp-pNitroanilide substrate. Synthesis of analogous substrates is described by L. A. Reiter (Int. J. Peptide Protein Res. 12, 87-96 (1994)). The assay mixture contains:
The visible ICE assay is run in a 96-well microtiter plate. Buffer, ICE and DMSO (if inhibitor is present) are added to the wells in the order listed. The components are left to incubate at room temperature for 15 minutes starting at the time that all components are present in all wells. The microtiter plate reader is set to incubate at 37° C. After the 15 minute incubation, substrate is added directly to the wells and the reaction is monitored by following the release of the chromophore (pNA) at 405-603 nm at 37° C. for 20 minutes. A linear fit of the data is performed and the rate is calculated in mOD/min. DMSO is only present during experiments involving inhibitors, buffer is used to make up the volume to 100 μl in the other experiments.
For determination of enzyme inhibition constants (Ki) or the mode of inhibition (competitive, uncompetitive or noncompetitive), the rate data determined in the enzyme assays at varying inhibitor concentrations are computer-fit to standard enzyme kinetic equations (see I. H. Segel, Enzyme Kinetics, Wiley-Interscience, 1975).

The test system of assay [1] is IL-1β, human peripheral blood mononuclear cells (PBMC). Put plainly: PBMC cell assay: IL-1β assay with human PBMC or enriched adherent mononuclear cells, LPS-stimulated. Format: cell-based. From the text:
IL-1β Assay with a Mixed Population of Human Peripheral Blood Mononuclear Cells (PBMC) or Enriched Adherent Mononuclear Cells
Processing of pre-IL-1β by ICE can be measured in cell culture using a variety of cell sources. Human PBMC obtained from healthy donors provides a mixed population of lymphocyte subtypes and mononuclear cells that produce a spectrum of interleukins and cytokines in response to many classes of physiological stimulators. Adherent mononuclear cells from PBMC provides an enriched source of normal monocytes for selective studies of cytokine production by activated cells.
An initial dilution series of test compound in DMSO or ethanol is prepared, with a subsequent dilution into RPMI-10% FBS media (containing 2 mM L-glutamine, 10 mM HEPES, 50 U and 50 ug/ml pen/strep) respectively to yield drugs at 4× the final test concentration containing 0.4% DMSO or 0.4% ethanol. The final concentration of DMSO is 0.1% for all drug dilutions. A concentration titration which brackets the apparent Ki for a test compound determined in an ICE inhibition assay is generally used for the primary compound screen.
Generally 5-6 compound dilutions are tested and the cellular component of the assay is performed in duplicate, with duplicate ELISA determinations on each cell culture supernatant.
PBMC Isolation and IL-1 Assay:
Buffy coat cells isolated from one pint human blood (yielding 40-45 ml final volume plasma plus cells) are diluted with media to 80 ml and LeukoPREP separation tubes (Becton Dickinson) are each overlaid with 10 ml of cell suspension. After 15 min centrifugation at 1500-1800×g, the plasma/media layer is aspirated and then the mononuclear cell layer is collected with a Pasteur pipette and transferred to a 15 ml conical centrifuge tube (Corning). Media is added to bring the volume to 15 ml, gently mix the cells by inversion and centrifuge at 300×g for 15 min. Resuspend the PBMC pellet in a small volume of media, count cells and adjust to 6×10^6 cells/ml.
For the cellular assay, 1.0 ml of the cell suspension is added to each well of a 24-well flat bottom tissue culture plate (Corning), 0.5 ml test compound dilution and 0.5 ml LPS solution (Sigma #L-3012; 20 ng/ml solution prepared in complete RPMI media; final LPS concentration 5 ng/ml). The 0.5 ml additions of test compound and LPS are usually sufficient to mix the contents of the wells. Three control mixtures are run per experiment, with either LPS alone, solvent vehicle control, and/or additional media to adjust the final culture volume to 2.0 ml. The cell cultures are incubated for 16-18 hr at 37° C. in the presence of 5% CO2.
At the end of the incubation period, cells are harvested and transferred to 15 ml conical centrifuge tubes. After centrifugation for 10 min at 200×g, supernatants are harvested and transferred to 1.5 ml Eppendorf tubes. It may be noted that the cell pellet may be utilized for a biochemical evaluation of pre-IL-1β and/or mature IL-1β content in cytosol extracts by western blotting or ELISA with pre-IL-1β specific antisera.
Isolation of Adherent Mononuclear Cells:
PBMC are isolated and prepared as described above. Media (1.0 ml) is first added to wells followed by 0.5 ml of the PBMC suspension. After a one hour incubation, plates are gently shaken and nonadherent cells aspirated from each well. Wells are then gently washed three times with 1.0 ml of media and final resuspended in 1.0 ml media. The enrichment for adherent cells generally yields 2.5−3.0×10^5 cells per well. The addition of test compounds, LPS, cell incubation conditions and processing of supernatants proceeds as described above.
We have used Quantikine kits (R&D Systems) for measurement of mature IL-1β. Assays are performed according to the manufacturer's directions. Mature IL-1β levels of about 1-3 ng/ml in both PBMC and adherent mononuclear cell positive controls are observed. […]

Where [2] appears, read: Homo sapiens, PBMC, * = values obtained upon reassay.

For orientation: Ki means a measure of affinity in units of concentration, obtained from inhibition or displacement. A word on the IC50: it is the concentration at which inhibition is half-maximal. A low value points to greater potency. `O=C[C@H](CC(=O)O)NC(=O)[C@@H]1CCCN2C(=O)CC[C@H](NC(=O)c3ccnc4ccccc34)C(=O)N12` [Compound 435] had a Ki on ICE (Table 5) of 8 nM. In assay [1] (setting [2]), the IC50 was determined as 4400 nM.

Take `CC(C)CC(=O)N1C[C@H](NC(=O)c2ccccc2)C(=O)N(CC(=O)N[C@H](C=O)CC(=O)O)c2ccccc21` [Compound 605f, (3S)-3-[(3S)-2-Oxo-3-benzoylamino-5-(3-methylbutyryl)-2,3,4,5-tetrahydro-1H-1,5-benzodiazepin-1-acetylamino]-4-oxo-butyric acid]: affinity on ICE (Table 5) was put at a Ki of 475 nM. Besides, it took 12500 nM to reach half-maximal inhibition in assay [1] (setting [2]) (IC50).

At ICE (Table 5), `O=C[C@H](CC(=O)O)NC(=O)[C@@H]1CCCN2C(=O)CC[C@H](NC(=O)c3cnc4ccccc4c3)C(=O)N12` [Compound 436] gave a Ki of 7.5 nM. Also, in assay [1] (setting [2]), half-maximal inhibition (IC50) required 2700 nM.

On ICE (Table 5), `C[C@H]1CC(=O)N2CCC[C@@H](C(=O)N[C@H](C=O)CC(=O)O)N2C(=O)[C@H]1NC(=O)c1ccccc1` [Compound 257, [3S(1S,8S,9S)]3-(9-benzoylamino-6,10-dioxo-8-methyl-1,2,3,4,7,8,9,10-octahydro-6H-pyridazino-[1,2-a][1,2]diazepine-1-carboxamido)-4-oxobutanoic acid] returned a Ki of 13 nM. Moreover, the results for the IC50 in assay [1] (* = values obtained upon reassay) and in assay [1] (setting [2]) were 6600 nM and 11000 nM, respectively.

On ICE (Table 5), `O=C[C@H](CC(=O)O)NC(=O)CN1C(=O)[C@@H](NC(=O)c2ccccc2)CN(C(=O)Cc2ccncc2)c2ccccc21` [Compound 605s, (3S)-3-[(3S)-2-Oxo-3-benzoylamino-5-(4-pyridylacetyl)-2,3,4,5-tetrahydro-1H-1,5-benzodiazepin-1-acetylamino]-4-oxo-butyric acid] returned a Ki of 150 nM. Also, half-maximal inhibition in assay [1] (setting [2]) (IC50) was put at 6000 nM.

On to `O=C[C@H](CC(=O)O)NC(=O)[C@@H]1CCCN2C(=O)CC[C@H](NC(=O)c3ccc4ccccc4c3O)C(=O)N12` [Compound 449], for which affinity at ICE (Table 5) was put at a Ki of 12 nM. Besides, in assay [1] (setting [2]), the IC50 amounted to 1500 nM.

As to `CS(=O)(=O)N[C@H]1CCC(=O)N2CCC[C@@H](C(=O)N[C@@H](CC(=O)O)C(=O)COC(=O)c3ccccc3Oc3ccccc3)N2C1=O` [Compound 505c, [3S(1S,9S)]3-[6,10-Dioxo-9-(methanesulphonylamino)-1,2,3,4,7,8,9,10-octahydro-6H-pyridazino[1,2-a][1,2]diazepine-1-carboxamido]-4-oxo-5-(2-phenoxybenzoyloxy)pentanoic acid], in assay [1] (Table 17), the midpoint of inhibition, the IC50, lay at 1500 nM.

At ICE (Table 5), `O=C(O)C[C@H](NC(=O)CN1C(=O)[C@@H](NC(=O)CCc2ccccc2)CN(C(=O)CCc2ccccc2)c2ccccc21)C(=O)c1nc2cc(Cl)cc(Cl)c2o1` [Compound 609a, (3S)-3-[(3S)-2-Oxo-3-(3-phenylpropionylamino)-5-(3-phenylpropionyl)-2,3,4,5-tetrahydro-1H-1,5-benzodiazepin-1-acetylamino]-4-(5,7-dichlorobenzoxazol-2-yl)-4-oxo-butyric acid] registered a Ki of 114 nM. The IC50 in assay [1] (setting [2]) is greater than 30000 nM.

As for `CS(=O)(=O)N[C@H]1CCC(=O)N2CCC[C@@H](C(=O)N[C@@H](CC(=O)O)C(=O)COC(=O)c3cccc(Oc4ccccc4)c3)N2C1=O` [Compound 505d, [3S(1S,9S)]3-[6,10-Dioxo-9-(methanesulphonylamino)-1,2,3,4,7,8,9,10-octahydro-6H-pyridazino[1,2-a][1,2]diazepine-1-carboxamido]-4-oxo-5-(3-phenoxybenzoyloxy)pentanoic acid], the IC50 in assay [1] (Table 17) was greater than 20000 nM.

`CS(=O)(=O)N[C@H]1CCC(=O)N2CCC[C@@H](C(=O)N[C@@H](CC(=O)O)C(=O)COc3nc4ccccn4c(=O)c3Cl)N2C1=O` [Compound 505f, [3S(1S,9S)]5-(3-Chloro-2-oxy-4H-pyrido[1,2-a]pyrimidin-4-one)-3-[6,10-dioxo-9-(methylsulphonyl)amino-1,2,3,4,7,8,9,10-octahydro-6H-pyridazino[1,2-a][1,2]diazepine-1-carboxamido]-4-oxopentanoic acid]: in assay [1] (Table 17), the IC50 turned out to be 550 nM.

In turn, `O=C[C@H](CC(=O)O)NC(=O)[C@@H]1CCCN2C(=O)CCN(NC(=O)C(=O)c3ccc4c(c3)OCO4)C(=O)N12` [Compound 1109] gave an inhibition constant (Ki) on ICE (Table 17) of 80 nM.

As to `COC(=O)N1C[C@H](NC(=O)c2ccc(O)c(Cl)c2)C(=O)N(CC(=O)N[C@H](C=O)CC(=O)O)c2ccccc21` [Compound 720], the Ki on ICE (Table 27) stood at 2.7 nM. This counts as single-digit nanomolar.

`CS(=O)(=O)N[C@H]1CCC(=O)N2CCC[C@@H](C(=O)N[C@@H](CC(=O)O)C(=O)CSc3nnnn3-c3ccccc3)N2C1=O` [Compound 280b, [3S(1S,9S)]3-(6,10-Dioxo-9-methanesulphonamido-1,2,3,4,7,8,9,10-octahydro-6H-pyridazino[1,2-a][1,2]diazepine-1-carboxamido)-4-oxo-5(1-phenyl-1H-tetrazole-5-thio)pentanoic acid] showed an IC50 in assay [1] (Table 17) of 13000 nM.

With `CC(=O)OC(C)(C)C(=O)N1C[C@H](NC(=O)c2cc(C)c(O)c(C)c2)C(=O)N(CC(=O)N[C@H](C=O)CC(=O)O)c2ccccc21` [Compound 728], the affinity on ICE (Table 27) corresponds to a Ki of 300 nM.

For `CC(=O)N1C[C@H](NC(=O)C(=O)c2cccs2)C(=O)N(CC(=O)N[C@H](C=O)CC(=O)O)c2ccccc21` [Compound 701], affinity on ICE (Table 17) was put at a Ki of 90 nM.

`O=C[C@H](CC(=O)O)NC(=O)[C@@H]1CCCN2C(=O)CC[C@H](NC(=O)c3ccc(O)c(CN4CCOCC4)c3)C(=O)N12` [Compound 477]: on ICE (Table 5), the Ki was 60 nM.

Take `O=C[C@H](CC(=O)O)NC(=O)[C@@H]1CCCN2C(=O)CC[C@H](NC(=O)c3cccc(F)c3)C(=O)N12` [Compound 462]: the Ki at ICE (Table 5) turned out to be 40 nM. This Ki lies about 1.5-fold lower than the previous one.

For the compound `CC(=O)N1C[C@H](NC(=O)/C=C/c2ccc3c(c2)OCO3)C(=O)N(CC(=O)N[C@H](C=O)CC(=O)O)c2ccccc21` [Compound 708], affinity at ICE (Table 17) was put at a Ki of 140 nM.

For `O=C[C@H](CC(=O)O)NC(=O)[C@@H]1CCCN2C(=O)CCN(NC(=O)CCC3CCCCC3)C(=O)N12` [Compound 1119], the Ki on ICE (Table 17) is 515 nM. This Ki is about 3.7-fold higher than that of the compound before.

`CC(=O)N1C[C@H](NC(=O)Cc2ccccc2)C(=O)N(CC(=O)N[C@H](C=O)CC(=O)O)c2ccccc21` [Compound 630] came in with a Ki at ICE (Table 5) of 270 nM.

Consider `O=C[C@H](CC(=O)O)NC(=O)CN1C(=O)[C@@H](NC(=O)c2nccc3ccccc23)CN(C(=O)CO)c2cc(Cl)ccc21` [Compound 696-2, (3S)-3-[(3S)-2-Oxo-3-isoquinolin-1-oylamino-5-hydroxyacetyl-2,3,4,5-tetrahydro-7-chloro-1H-1,5-benzodiazepine-1-acetylamino]-4-oxobutyric acid], for which the Ki at ICE (Table 27) worked out at 0.5 nM.

The record behind these values is patent publication US20120165319A1, “INHIBITORS OF INTERLEUKIN-1 BETA CONVERTING ENZYME” (VERTEX PHARMACEUTICALS INCORPORATED, priority 1995, published 2012).
